“And” between values parts separate entries of the source, which are not always exact repeats. Equal values may be shown once. Read-outs that look alike come from different tables or passages of the source.
Assays:
SpChiD mutant E153A = test: DSC ligand-induced thermal stability of E153A with CHOS DP2–6; format: binding, Serratia proteamaculans; settings: for Tm Transition-I / Tm Transition-II: DSC, pH 8.0; for Tm Transition-I: E153A 0.5 mg/mL alone or pre-incubated 1 h with 1 mM ligand; for Tm Transition-II: E153A alone or pre-incubated 1 h with 1 mM ligand; for increment of Tm1 over E153A alone / increment of Tm2 over E153A alone: [Tm of E153A + (DP)n] − Tm of E153A alone; for increment of Tm1 over E153A alone: first transition; for increment of Tm2 over E153A alone: second transition
Description: DSC measurements were carried out on a MicroCal VP-DSC (MicroCal LLC, Northampton, MA, USA). SpChiD and mutant E153A were dialyzed against 20 mM potassium phosphate buffer, pH 8.0. The dialysate was used as the reference. Protein samples (0.5 mg/mL) were heated from 10–70 °C at a scan rate of 30°/h to assess the effect of ligand binding on thermal unfolding. Mutant E153A was pre-incubated for 1 h with 1 mM of each ligand (DP2–6) before scanning. Sample and reference solutions were degassed prior to scanning to eliminate bubbling effects. Baseline reproducibility was verified by multiple scans, and the reversibility of protein unfolding was monitored by scanning the sample twice. Buffer scans were subtracted from thermograms obtained in the presence or absence of CHOS before further analysis. Absolute and excess heat capacities were analyzed using a non-two-state fit of the thermogram in Origin v7.0.

SpChiD-E153A [1] = test: ITC binding of CHOS to E153A; set-up: species or system Serratia proteamaculans; settings: for binding affinity to E153A relative to the same ligand on SmChiB: times higher than SmChiB
Description: (§1) Calorimetric titrations were carried out at 13 °C with DP2–4 CHOS, and at 25 °C with DP5 and DP6 CHOS, using a MicroCal ITC200 System (Microcal, Northampton, MA, USA). Mutant E153A was extensively dialyzed against 20 mM potassium phosphate (pH 8.0) and the dialysate was used to make CHOS solutions to minimize the heat of dilution during titration. Protein solutions were passed through 0.2-μm filters and thoroughly degassed prior to use. […] Successive injections at 225-s intervals ensured that equilibrium was achieved before adding the next aliquot. The sample in the calorimeter cell was stirred at 260 rpm during titration. Blank titrations were also performed by injecting ligand alone into the buffer solution, which yielded insignificant heat of dilution values. The binding isotherms were analyzed using MicroCal Origin v7.0. Thermodynamic parameters such as binding stoichiometry (n), change in enthalpy (ΔH) and association constant (Ka) were obtained by nonlinear least-squares fitting of experimental data using the one-set-of-sites binding model. Free energy of binding (ΔG) and change in entropy (ΔS) were deduced from the Ka and ΔH values using the standard thermodynamic equation

SpChiD-E153A [2] = molecular target: SpChiD-E153A (Serratia proteamaculans, UniProt A8GFD6, E159A); test: ITC binding of CHOS to E153A; settings: ITC
Description: as §1

SmChiB-E144Q = test: Literature Kd values from isothermal titration calorimetry, quoted for comparison; conditions not given in this article.; format: binding; settings: read-out: Kd values in μM (SmChiB-E144Q, OfChtI-E148Q, BcChiA-E61A); cited from earlier work
Source text: (§2) So far three chitinases, two belonging to family GH18 (ChiB from S. marcescens−SmChiB and a chitinase from the insect Ostrinia furnacalis−OfChtI) and one belonging to family GH19 (ChiA from moss species, Bryum coronatum−BcChiA) were studied in great detail for their binding properties using ITC[27][28][29]. […] The high binding affinities of the mutant E153A even for the lower chain CHOS like DP2 and DP3, indicates the probability of these CHOS getting transglycosylated at the substrate-binding cleft. […] Therefore, the exceptionally high binding affinities of the mutant E153A for CHOS with DP2−6 compared to any other GH18 or GH19 chitinases[27][28][29] (Table 3) might be crucial to facilitate the unprecedented hyper-TG activity by SpChiD.

BcChiA-E61A = test: as above; format: binding; settings: read-out: Kd values in μM (SmChiB-E144Q, OfChtI-E148Q, BcChiA-E61A); cited from earlier work
Source text: as §2

OfChtI-E148Q = settings: catalytically-inactive mutant, cited from earlier work

Sequence of SpChiD-E153A (Serratia proteamaculans, UniProt A8GFD6, E159A) (A8GFD6 entry or part of it E159A): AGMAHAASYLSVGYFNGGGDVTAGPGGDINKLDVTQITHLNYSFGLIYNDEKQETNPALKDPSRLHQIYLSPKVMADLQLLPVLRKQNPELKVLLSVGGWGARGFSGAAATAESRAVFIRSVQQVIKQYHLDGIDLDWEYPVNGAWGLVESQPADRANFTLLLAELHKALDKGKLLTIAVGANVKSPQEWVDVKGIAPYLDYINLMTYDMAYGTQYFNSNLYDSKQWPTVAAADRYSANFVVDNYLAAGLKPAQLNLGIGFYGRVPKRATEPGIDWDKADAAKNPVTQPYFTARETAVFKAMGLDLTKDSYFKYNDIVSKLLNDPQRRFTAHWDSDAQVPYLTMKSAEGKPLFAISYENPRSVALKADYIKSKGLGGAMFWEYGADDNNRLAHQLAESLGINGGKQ

## CC(=O)N[C@H]1[C@H](O[C@H]2[C@H](O)[C@@H](NC(C)=O)C(O)O[C@@H]2CO)O[C@H](CO)[C@@H](O)[C@@H]1O (some centres unmarked) [DP2]
SpChiD mutant E153A
  Tm Transition-I: 48.78 ± 0.03 °C
  Tm Transition-II: 53.16 ± 0.096 °C
SpChiD-E153A [1]; compared with DP5 on SmChiB (Kd = 0.67 μM)
  binding affinity of DP2 to SpChiD relative to DP5 binding to SmChiB: ~3 times
SpChiD-E153A [2]; 13 °C
  n (binding stoichiometry): 3.04 and 3.04 ± 0.307
  ΔH°: -0.1506 ± 0.0261 kcal/mol
  ΔS°: 20.6 cal.mol^−1.deg^−1
  −TΔS: 5.89 kcal/mol
  −ΔG°: 6.04 kcal/mol

## CC(=O)N[C@H]1[C@H](O[C@H]2[C@H](O)[C@@H](NC(C)=O)C(O)O[C@@H]2CO)O[C@H](CO)[C@@H](O[C@@H]2O[C@H](CO)[C@@H](O)[C@H](O)[C@H]2NC(C)=O)[C@@H]1O (some centres unmarked) [DP3, (GlcNAc)3, N,N',N''-triacetylchitotriose]
SmChiB-E144Q
  Kd: 327 ± 22 µM
BcChiA-E61A
  Kd: 230 ± 20 µM

## CC(=O)N[C@H]1[C@H](O[C@H]2[C@H](O)[C@@H](NC(C)=O)C(O)O[C@@H]2CO)O[C@H](CO)[C@@H](O[C@@H]2O[C@H](CO)[C@@H](O)[C@H](O)[C@H]2NC(C)=O)[C@@H]1O (some centres unmarked) [DP3]
SpChiD mutant E153A
  Tm Transition-I: 50.20 ± 0.47 °C
  Tm Transition-II: 54.30 ± 0.043 °C
SpChiD-E153A [1]
  binding affinity to E153A relative to the same ligand on SmChiB: 1,515 fold
SpChiD-E153A [2]; 13 °C
  n (binding stoichiometry): 0.84 and 0.839 ± 0.0641
  ΔH°: -1.837 ± 0.186 kcal/mol
  ΔS°: 14.9 cal.mol^−1.deg^−1
  −TΔS: 4.26 kcal/mol
  −ΔG°: 6.1 kcal/mol
OfChtI-E148Q; read-out: Kd1 to OfChtI-E148Q
  Kd: 76900 nM
OfChtI-E148Q; read-out: Kd2 to OfChtI-E148Q
  Kd: 284000 nM

## CC(=O)N[C@H]1[C@H](O[C@H]2[C@H](O)[C@@H](NC(C)=O)C(O)O[C@@H]2CO)O[C@H](CO)[C@@H](O[C@@H]2O[C@H](CO)[C@@H](O[C@@H]3O[C@H](CO)[C@@H](O)[C@H](O)[C@H]3NC(C)=O)[C@H](O)[C@H]2NC(C)=O)[C@@H]1O (some centres unmarked) [DP4, (GlcNAc)4, tetra-N-acetylchitotetraose]
SmChiB-E144Q
  Kd: 2.7 ± 0.19 µM
BcChiA-E61A
  Kd: 16 ± 1 µM

## CC(=O)N[C@H]1[C@H](O[C@H]2[C@H](O)[C@@H](NC(C)=O)C(O)O[C@@H]2CO)O[C@H](CO)[C@@H](O[C@@H]2O[C@H](CO)[C@@H](O[C@@H]3O[C@H](CO)[C@@H](O)[C@H](O)[C@H]3NC(C)=O)[C@H](O)[C@H]2NC(C)=O)[C@@H]1O (some centres unmarked) [DP4]
SpChiD mutant E153A
  Tm Transition-I: 48.88 ± 0.52 °C
  Tm Transition-II: 54.10 ± 0.032 °C
SpChiD-E153A [2]; 13 °C
  n (binding stoichiometry): 1.69 and 1.69 ± 0.071
  ΔH°: 1.148 ± 0.0675 kcal/mol
  ΔS°: 27 cal.mol^−1.deg^−1
  −TΔS: 7.72 kcal/mol
  −ΔG°: 6.6 kcal/mol
OfChtI-E148Q; read-out: Kd to OfChtI-E148Q
  Kd: 11300 ± 1500 nM

## CC(=O)N[C@H]1[C@H](O[C@H]2[C@H](O)[C@@H](NC(C)=O)[C@H](O[C@H]3[C@H](O)[C@@H](NC(C)=O)C(O)O[C@@H]3CO)O[C@@H]2CO)O[C@H](CO)[C@@H](O[C@@H]2O[C@H](CO)[C@@H](O[C@@H]3O[C@H](CO)[C@@H](O)[C@H](O)[C@H]3NC(C)=O)[C@H](O)[C@H]2NC(C)=O)[C@@H]1O (some centres unmarked) [DP5, (GlcNAc)5, penta-N-acetylchitopentaose]
SmChiB-E144Q
  Kd: 0.67 ± 0.2 µM
BcChiA-E61A
  Kd: 1.8 ± 0.3 µM

## CC(=O)N[C@H]1[C@H](O[C@H]2[C@H](O)[C@@H](NC(C)=O)[C@H](O[C@H]3[C@H](O)[C@@H](NC(C)=O)C(O)O[C@@H]3CO)O[C@@H]2CO)O[C@H](CO)[C@@H](O[C@@H]2O[C@H](CO)[C@@H](O[C@@H]3O[C@H](CO)[C@@H](O)[C@H](O)[C@H]3NC(C)=O)[C@H](O)[C@H]2NC(C)=O)[C@@H]1O (some centres unmarked) [DP5]
SpChiD mutant E153A
  Tm Transition-I: 56.09 ± 0.30 °C
  Tm Transition-II: 59.30 ± 0.063 °C
  increment of Tm1 over E153A alone: 10.7 °C
  increment of Tm2 over E153A alone: 11.2 °C
SpChiD-E153A [1]
  binding affinity to E153A relative to the same ligand on SmChiB: 52 fold
SpChiD-E153A [2]; 25 °C
  n (binding stoichiometry): 1.09 and 1.09 ± 0.00966
  ΔH°: 3.530 ± 0.0468 kcal/mol
  ΔS°: 38.7 cal.mol^−1.deg^−1
  −TΔS: 11.53 kcal/mol
  −ΔG°: 8 kcal/mol
OfChtI-E148Q; read-out: Kd to OfChtI-E148Q
  Kd: 2000 ± 200 nM

## CC(=O)N[C@H]1[C@H](O[C@H]2[C@H](O)[C@@H](NC(C)=O)[C@H](O[C@H]3[C@H](O)[C@@H](NC(C)=O)C(O)O[C@@H]3CO)O[C@@H]2CO)O[C@H](CO)[C@@H](O[C@@H]2O[C@H](CO)[C@@H](O[C@@H]3O[C@H](CO)[C@@H](O[C@@H]4O[C@H](CO)[C@@H](O)[C@H](O)[C@H]4NC(C)=O)[C@H](O)[C@H]3NC(C)=O)[C@H](O)[C@H]2NC(C)=O)[C@@H]1O (some centres unmarked) [DP6, (GlcNAc)6, hexa-N-acetylchitohexaose (chitohexaose)]
SmChiB-E144Q
  Kd: 0.13 ± 0.09 µM
BcChiA-E61A
  Kd: 0.77 ± 0.06 µM

## CC(=O)N[C@H]1[C@H](O[C@H]2[C@H](O)[C@@H](NC(C)=O)[C@H](O[C@H]3[C@H](O)[C@@H](NC(C)=O)C(O)O[C@@H]3CO)O[C@@H]2CO)O[C@H](CO)[C@@H](O[C@@H]2O[C@H](CO)[C@@H](O[C@@H]3O[C@H](CO)[C@@H](O[C@@H]4O[C@H](CO)[C@@H](O)[C@H](O)[C@H]4NC(C)=O)[C@H](O)[C@H]3NC(C)=O)[C@H](O)[C@H]2NC(C)=O)[C@@H]1O (some centres unmarked) [DP6, chitohexaose]
SpChiD mutant E153A
  Tm Transition-I: 58.15 ± 0.19 °C
  Tm Transition-II: 60.49 ± 0.055 °C
  increment of Tm1 over E153A alone: 12.8 °C
  increment of Tm2 over E153A alone: 12.4 °C
SpChiD-E153A [1]
  binding affinity to E153A relative to the same ligand on SmChiB: 26 fold
SpChiD-E153A [2]; 25 °C
  n (binding stoichiometry): 1.58 and 1.58 ± 0.00962
  ΔH°: 2.281 ± 0.0249 kcal/mol
  ΔS°: 36.3 cal.mol^−1.deg^−1
  −TΔS: 10.81 kcal/mol
  −ΔG°: 8.53 kcal/mol
OfChtI-E148Q; read-out: Kd to OfChtI-E148Q
  Kd: 480 ± 90 nM
